Laboratory results published in ChEMBL document CHEMBL1201862, “PubChem BioAssay data set” (2004).
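In this assay, cells in 96-well plates receive the compound at five concentrations for 48 hours. Endpoints are linearly interpolated between the surrounding concentrations. GI50 marks 50% less growth.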 The source made the active and inactive calls. Rule as the data show it: active = GI50 up to about 1.1 µM and inactive = higher.

Columns and labels:
Experiment in all cases: NCI tumour cell line growth inhibition, 48 h
Hs-578T = system: Hs-578T
UACC-257 = system: UACC-257
M14 = system: M14
RXF 393 = system: RXF 393
MDA-N = system: MDA-N
K562 = system: K562
A549 = system: A549
MDA-MB-231 = system: MDA-MB-231
KM12 = system: KM12
OVCAR-4 = system: OVCAR-4
UACC-62 = system: UACC-62
HOP-62 = system: HOP-62
SNB-19 = system: SNB-19
U-251 = system: U-251
HL-60 = system: HL-60
A498 = system: A498
NCI-H522 = system: NCI-H522
OVCAR-5 = system: OVCAR-5
HOP-92 = system: HOP-92
NCI-H226 = system: NCI-H226
OVCAR-3 = system: OVCAR-3
HCT-116 = system: HCT-116
T47D = system: T47D
SW-620 = system: SW-620
UO-31 = system: UO-31
CAKI-1 = system: CAKI-1
SR = system: SR
SK-MEL-2 = system: SK-MEL-2
SK-MEL-5 = system: SK-MEL-5
NCI/ADR-RES = system: NCI/ADR-RES
LOX IMVI = system: LOX IMVI
HCC 2998 = system: HCC 2998
MDA-MB-435 = system: MDA-MB-435
NCI-H23 = system: NCI-H23
TK-10 = system: TK-10
Malme-3M = system: Malme-3M
SF-295 = system: SF-295
NCI-H460 = system: NCI-H460
786-0 = system: 786-0
IGROV-1 = system: IGROV-1
SN12C = system: SN12C
OVCAR-8 = system: OVCAR-8
DU-145 = system: DU-145
EKVX = system: EKVX
HT-29 = system: HT-29
MOLT-4 = system: MOLT-4
SK-MEL-28 = system: SK-MEL-28
PC-3 = system: PC-3
ACHN = system: ACHN
HCT-15 = system: HCT-15
SF-268 = system: SF-268
BT-549 = system: BT-549
MCF7 = system: MCF7
COLO 205 = system: COLO 205
SK-OV-3 = system: SK-OV-3
CCRF-CEM = system: CCRF-CEM
SNB-75 = system: SNB-75
SF-539 = system: SF-539
RPMI-8226 = system: RPMI-8226

Measured: GI50

Nc1nc(Cc2ccccc2)nc(Cc2ccccc2)c1-c1ccccc1
inactive: Hs-578T 85.7 µM | UACC-257 37.3 µM | M14 30.3 µM | RXF 393 22.6 µM | MDA-N 16.1 µM | K562 18 µM | A549 33.9 µM | MDA-MB-231 18.7 µM | KM12 28.1 µM | OVCAR-4 38.5 µM | UACC-62 18 µM | HOP-62 20.7 µM | SNB-19 75.7 µM | U-251 17.9 µM | HL-60 24 µM | A498 26 µM | NCI-H522 16.9 µM | OVCAR-5 29.1 µM | HOP-92 11.5 µM | NCI-H226 19.2 µM | OVCAR-3 14.7 µM | HCT-116 19.5 µM | T47D 36.8 µM | SW-620 33.9 µM | UO-31 27 µM | CAKI-1 39.5 µM | SR 20.8 µM | SK-MEL-2 13.6 µM | SK-MEL-5 15.5 µM | NCI/ADR-RES 16.7 µM | LOX IMVI 21.3 µM | HCC 2998 46.6 µM | MDA-MB-435 22.9 µM | NCI-H23 17.7 µM | TK-10 56.9 µM | Malme-3M 20.4 µM | SF-295 25.6 µM | NCI-H460 28.2 µM | 786-0 22.9 µM | IGROV-1 26.4 µM | SN12C 28.2 µM | OVCAR-8 28.7 µM | DU-145 22.8 µM | EKVX 11.4 µM | HT-29 21.9 µM | MOLT-4 11.2 µM | SK-MEL-28 48.1 µM | PC-3 23.1 µM | ACHN 29 µM | SF-268 31 µM | BT-549 20.6 µM
21.5 µM: HCT-15

O=C(O)[C@H]1CCCN1CP(=O)(O)CN1CCC[C@@H]1C(=O)O
> 100 µM: HCT-15
inactive: Hs-578T > 100 µM | MCF7 > 100 µM | UACC-257 > 100 µM | COLO 205 > 100 µM | M14 > 100 µM | RXF 393 > 100 µM | MDA-N > 100 µM | K562 > 100 µM | A549 > 100 µM | MDA-MB-231 > 100 µM | KM12 > 100 µM | OVCAR-4 > 100 µM | UACC-62 > 100 µM | HOP-62 > 100 µM | SNB-19 > 100 µM | U-251 > 100 µM | HL-60 > 100 µM | NCI-H522 > 100 µM | OVCAR-5 > 100 µM | HOP-92 > 100 µM | SK-OV-3 > 100 µM | OVCAR-3 > 100 µM | HCT-116 > 100 µM | T47D > 100 µM | SW-620 > 100 µM | UO-31 > 100 µM | CAKI-1 > 100 µM | SK-MEL-2 > 100 µM | SK-MEL-5 > 100 µM | NCI/ADR-RES > 100 µM | LOX IMVI > 100 µM | MDA-MB-435 > 100 µM | NCI-H23 > 100 µM | Malme-3M > 100 µM | SF-295 > 100 µM | NCI-H460 > 100 µM | 786-0 > 100 µM | IGROV-1 > 100 µM | SN12C > 100 µM | OVCAR-8 > 100 µM | DU-145 > 100 µM | EKVX > 100 µM | HT-29 > 100 µM | CCRF-CEM > 100 µM | MOLT-4 > 100 µM | SNB-75 > 100 µM | SK-MEL-28 > 100 µM | PC-3 > 100 µM | ACHN > 100 µM | SF-268 > 100 µM | BT-549 > 100 µM

CC1=CCC[C@@](C)(O)[C@@H]2C[C@H]3C(CSc4ccccc4)C(=O)O[C@H]3[C@@H](O2)[C@H](C)CCC1 (stereo partly drawn)
19 µM: HCT-15
inactive: Hs-578T 18.4 µM | MCF7 13.8 µM | UACC-257 18.6 µM | COLO 205 18.1 µM | M14 13.7 µM | RXF 393 13.7 µM | MDA-N 24.5 µM | SF-539 16.4 µM | K562 9.08 µM | A549 10.5 µM | MDA-MB-231 28.1 µM | KM12 9.18 µM | OVCAR-4 19.8 µM | UACC-62 14.8 µM | HOP-62 16.6 µM | SNB-19 13.2 µM | U-251 21.2 µM | HL-60 > 100 µM | A498 18 µM | NCI-H522 10.7 µM | OVCAR-5 15.9 µM | HOP-92 26.9 µM | SK-OV-3 21.5 µM | OVCAR-3 13 µM | HCT-116 21.4 µM | T47D 22.2 µM | SW-620 27 µM | UO-31 11.8 µM | CAKI-1 25.1 µM | SR 6.35 µM | SK-MEL-2 17.2 µM | SK-MEL-5 14.5 µM | LOX IMVI 15.9 µM | HCC 2998 15.8 µM | MDA-MB-435 20.3 µM | NCI-H23 16.8 µM | RPMI-8226 7.43 µM | TK-10 17.3 µM | Malme-3M 13.7 µM | SF-295 12 µM | NCI-H460 6.1 µM | 786-0 20.3 µM | IGROV-1 14.5 µM | SN12C 38.2 µM | OVCAR-8 13.7 µM | DU-145 25.6 µM | EKVX 18.6 µM | CCRF-CEM > 100 µM | MOLT-4 7.13 µM | SNB-75 13.6 µM | SK-MEL-28 21 µM | PC-3 6.62 µM | ACHN 12.9 µM | SF-268 34 µM | BT-549 22.7 µM

CC(=O)NC1C(OCc2ccccc2)OC(CO)C(O)C1OC(C)C(=O)NC(C(=O)NC(CCC(=O)NCCCNc1ccc([N+](=O)[O-])c2[nH]c3ccccc3c(=O)c12)C(N)=O)C(C)C (stereo not drawn)
inactive: Hs-578T > 100 µM | MCF7 > 100 µM | UACC-257 > 100 µM | COLO 205 > 100 µM | M14 51.9 µM | MDA-N > 100 µM | SF-539 > 100 µM | A549 > 100 µM | MDA-MB-231 40.6 µM | KM12 > 100 µM | OVCAR-4 > 100 µM | UACC-62 > 100 µM | HOP-62 > 100 µM | SNB-19 > 100 µM | U-251 > 100 µM | HL-60 > 100 µM | A498 > 100 µM | NCI-H522 91.6 µM | OVCAR-5 59.6 µM | HOP-92 > 100 µM | SK-OV-3 > 100 µM | NCI-H226 > 100 µM | OVCAR-3 > 100 µM | HCT-116 > 100 µM | T47D > 100 µM | SW-620 > 100 µM | UO-31 > 100 µM | CAKI-1 > 100 µM | SK-MEL-2 > 100 µM | SK-MEL-5 > 100 µM | NCI/ADR-RES > 100 µM | LOX IMVI > 100 µM | MDA-MB-435 > 100 µM | NCI-H23 > 100 µM | TK-10 > 100 µM | SF-295 > 100 µM | NCI-H460 > 100 µM | 786-0 > 100 µM | IGROV-1 > 100 µM | SN12C > 100 µM | OVCAR-8 > 100 µM | DU-145 > 100 µM | EKVX > 100 µM | HT-29 > 100 µM | CCRF-CEM > 100 µM | MOLT-4 > 100 µM | SNB-75 > 100 µM | SK-MEL-28 > 100 µM | PC-3 > 100 µM | ACHN > 100 µM | SF-268 > 100 µM | BT-549 > 100 µM
> 100 µM: HCT-15
